Test systems include BT-549; T47D; RPMI-8226; EKVX; MDA-MB-231; COLO 205; MCF7; UO-31; SK-MEL-28; SK-MEL-5; SF-268; HCT-116; SK-MEL-2; M14; CCRF-CEM; DU-145; SF-539.
Common to all, as to experiment: DTP human tumour cell line panel, 48 h

Each structure is given as a SMILES string.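 96-well plates; 48 h exposure; 5 concentrations. Endpoints by linear interpolation between flanking doses. Not reached: highest tested concentration assigned. Here, GI50 denotes the concentration required for 50% inhibition of growth.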 Calls of active or inactive are those of the source. Rule as the data show it: active = GI50 up to about 1.1 µM and inactive = higher. Some results are limits rather than exact numbers.

With `CC1=NN(c2nc(N)nc(CSCc3nc(N)nc(N(C)C)n3)n2)C(C)(C)C1`, the GI50 in the assay with BT-549, with T47D, in the assay with RPMI-8226, in the assay with EKVX, in the assay on MDA-MB-231 and in the assay with COLO 205 was > 100 µM (inactive) in each case. Also, the GI50 in the assay with MCF7, in the assay with UO-31, in the assay on SK-MEL-28, with SK-MEL-5, with SF-268 and in the assay with HCT-116 was > 100 µM (inactive) in each case. The GI50 in the assay with SK-MEL-2, in the assay on M14, in the assay with CCRF-CEM, with DU-145 and with SF-539 was > 100 µM (inactive) in each case.
In the case of `CC(C)(C)OC(=O)NCC(=O)N(CCc1ccc(Cl)c(Cl)c1)CCN1CCCC1`, the GI50 is 20 µM (inactive) in the assay on BT-549; 22.7 µM (inactive) with T47D; 5.01 µM (inactive) in the assay with RPMI-8226; 21.7 µM (inactive) with EKVX; 13.1 µM (inactive) in the assay on MDA-MB-231; 13.6 µM (inactive) in the assay with COLO 205. Moreover, the GI50 in the assay on MCF7 is 16.4 µM (inactive); with UO-31 it was 14.6 µM (inactive); with SK-MEL-28, 13 µM (inactive); in the assay with SK-MEL-5, 13.7 µM (inactive); in the assay with SF-268, 15.3 µM (inactive); in the assay with HCT-116 it was 13.7 µM (inactive). Besides, the GI50 was 16.9 µM (inactive) in the assay on SK-MEL-2; 14.3 µM (inactive) in the assay on M14; 10.6 µM (inactive) in the assay with CCRF-CEM; 16.9 µM (inactive) in the assay on DU-145; 16.8 µM (inactive) in the assay with SF-539.
As to `COc1ccc(OC)c2sc(N3C(=O)/C(=C/c4cccc([N+](=O)[O-])c4)N=C3c3ccccc3)nc12`, the GI50 with BT-549 is 48.5 µM (inactive); in the assay on T47D it was 22.3 µM (inactive); with RPMI-8226, 22.5 µM (inactive); in the assay on EKVX, > 100 µM (inactive); in the assay with MDA-MB-231 it was > 100 µM (inactive); with COLO 205, > 100 µM (inactive). Further, the GI50 in the assay with MCF7 is 21.2 µM (inactive); in the assay on UO-31 it was > 100 µM (inactive); with SK-MEL-28, 76 µM (inactive); with SK-MEL-5, 49.4 µM (inactive); in the assay with SF-268 it was 57.5 µM (inactive); in the assay on HCT-116, > 100 µM (inactive). Also, the GI50 with SK-MEL-2 was 69 µM (inactive); in the assay on M14, > 100 µM (inactive); in the assay on CCRF-CEM, 24.9 µM (inactive); with DU-145, 68.4 µM (inactive); in the assay with SF-539 it was 41.1 µM (inactive).
On to `CCOC(=O)c1c(-c2ccc(Br)cc2)ccn1C`, for which the GI50 with BT-549, in the assay with T47D, in the assay with RPMI-8226, in the assay with EKVX, in the assay on MDA-MB-231 and with COLO 205 was > 10 µM (inactive) in each case. The GI50 in the assay on MCF7, in the assay on SK-MEL-28, in the assay on SK-MEL-5, with SF-268, with HCT-116 and in the assay on SK-MEL-2 was > 10 µM (inactive) each time. Further, the GI50 in the assay with M14, with CCRF-CEM, with DU-145 and with SF-539 was > 10 µM (inactive) throughout.
Turning to `Clc1ccc(-c2nn3c(-c4ccncc4)nnc3s2)cc1`, the GI50 with BT-549 is > 100 µM (inactive); with T47D it was > 100 µM (inactive); in the assay with RPMI-8226 it was > 100 µM (inactive); in the assay with EKVX, > 100 µM (inactive); in the assay on MDA-MB-231, 66.7 µM (inactive); in the assay with COLO 205, > 100 µM (inactive). Moreover, the GI50 is > 100 µM (inactive) with MCF7; > 100 µM (inactive) in the assay on UO-31; > 100 µM (inactive) in the assay with SK-MEL-5; 37.4 µM (inactive) in the assay with SF-268; > 100 µM (inactive) with HCT-116; > 100 µM (inactive) in the assay on SK-MEL-2. In addition, the GI50 was > 100 µM (inactive) with M14, > 100 µM (inactive) with CCRF-CEM, 42.9 µM (inactive) with DU-145 and > 100 µM (inactive) with SF-539.
Consider `CCCCCCCCSC1=C(Cl)C(=O)C(OC)=C(OC)C1=O`, for which the GI50 in the assay with BT-549 was 14 µM (inactive); in the assay on T47D it was 5.08 µM (inactive); with RPMI-8226 it was 0.52 µM (active); in the assay with EKVX, 10.9 µM (inactive); in the assay on MDA-MB-231 it was 12.4 µM (inactive); in the assay with COLO 205, 17.1 µM (inactive). The GI50 is 3.94 µM (inactive) in the assay on MCF7; 12.1 µM (inactive) in the assay with UO-31; 4.74 µM (inactive) with SK-MEL-5; 12.4 µM (inactive) in the assay on SF-268; 4.83 µM (inactive) in the assay on HCT-116; 15.4 µM (inactive) in the assay with SK-MEL-2. For the same molecule, the GI50 is 2.16 µM (inactive) in the assay with M14, 5.68 µM (inactive) in the assay on CCRF-CEM, 15.1 µM (inactive) in the assay on DU-145 and 14.2 µM (inactive) with SF-539.
Take `O=C(c1ccco1)C1CC(c2ccc3ccccc3c2O)=NN1` (configuration not stated): the GI50 in the assay on BT-549 was > 100 µM (inactive); with T47D, 92.7 µM (inactive); in the assay on RPMI-8226, 42.9 µM (inactive); in the assay on MDA-MB-231, 30.8 µM (inactive); in the assay on COLO 205, 66.1 µM (inactive); in the assay with MCF7, 46.5 µM (inactive). In addition, the GI50 in the assay on UO-31 was 89.7 µM (inactive); with SK-MEL-28, > 100 µM (inactive); with SK-MEL-5, 89.5 µM (inactive); in the assay with SF-268 it was > 100 µM (inactive); in the assay on HCT-116 it was 57.4 µM (inactive); in the assay with SK-MEL-2, 71 µM (inactive). Besides, the GI50 with M14 is 54.8 µM (inactive); in the assay with CCRF-CEM it was 16.8 µM (inactive); in the assay on DU-145 it was > 100 µM (inactive); in the assay with SF-539, > 100 µM (inactive).
For `Cn1nc(-c2ccc(S(=O)(=O)N/C(=N/c3ccc(Cl)cc3)NN)s2)cc1C(F)(F)F`, the GI50 with BT-549 was 17.8 µM (inactive); in the assay with T47D it was 13.3 µM (inactive); with RPMI-8226, 21.3 µM (inactive); in the assay on EKVX it was 14.8 µM (inactive); with MDA-MB-231, 16.8 µM (inactive); in the assay on COLO 205 it was 17.1 µM (inactive). For the same molecule, the GI50 was 21 µM (inactive) with MCF7; 14.6 µM (inactive) in the assay on UO-31; 18.3 µM (inactive) in the assay on SK-MEL-28; 18.2 µM (inactive) with SK-MEL-5; 17.7 µM (inactive) in the assay on SF-268; 14.9 µM (inactive) in the assay on HCT-116. For the same molecule, the GI50 in the assay on SK-MEL-2 is 19.2 µM (inactive); with M14, 17.5 µM (inactive); in the assay with DU-145 it was 17.1 µM (inactive); in the assay on SF-539 it was 13.5 µM (inactive).
In the case of `O=C1NN=C2C=C(c3ccc(Cl)cc3)CC(c3cccc(Cl)c3)C12` (configuration not stated), the GI50 with BT-549 was 58.2 µM (inactive); in the assay with T47D, 60.7 µM (inactive); with RPMI-8226, 20.5 µM (inactive); in the assay with EKVX, 22.1 µM (inactive); in the assay on MDA-MB-231, 17.7 µM (inactive); in the assay on COLO 205, 16.8 µM (inactive). Further, the GI50 in the assay on MCF7 is 17.3 µM (inactive); in the assay with UO-31, 19.3 µM (inactive); in the assay on SK-MEL-5, 18.5 µM (inactive); in the assay with SF-268 it was 23.1 µM (inactive); with HCT-116 it was 18.5 µM (inactive); in the assay with SK-MEL-2 it was 19.7 µM (inactive). The GI50 is 38.3 µM (inactive) in the assay with M14, 23.6 µM (inactive) with CCRF-CEM, 64.3 µM (inactive) with DU-145 and 24.5 µM (inactive) in the assay on SF-539.

For orientation: GI50 means the concentration at which growth is held to half of that of the control.

Source of the values: ChEMBL document CHEMBL1201862, “PubChem BioAssay data set” (2004).
